Results: patent US8865672B2, “Prevention of tissue ischemia and related methods” (The United States of America, as represented by the …, priority 2006, dated 2014)

Legend:
[1] = tested on: random dorsal cutaneous flaps in white hairless Yucatan miniature pigs; assay: Porcine random cutaneous flap model; type: in vivo, pig; conditions: for flap necrosis: 2×10 cm flaps, injection at surgery
Experimental: Animals underwent shaving of the dorsal surface hair and cleansing of the skin with soap and alcohol. Random dorsal cutaneous flaps 2×10×0.5 cm were elevated and immediately sutured in place with interrupted 4-0 nylon suture (Ethicon, Johnson & Johnson, N.J.). Treated flaps were injected with the indicated amounts of drug in sterile normal saline. On the 3 and 7 post-operative days tissue survival was determined and flaps excised for histology. In some instances animals received intravenous fluorescein prior to euthanasia and flap perfusion assessed under ultra violet illumination.
Clinical assessment of flap perfusion was performed with notation of color, capillary refill and bleeding to needle stick being recorded. Flap dimensions were then traced onto a clear plastic sheet and with demarcation of viable and non-viable areas made.
The internal jugular vein and common carotid arteries were cannulated and the animals perfused with a volume of 5 L heparinized (50 U/mL) normal saline heated to 50° C. A mixture of India ink and gelatin (5%) heated to 50° C. (1 L) was administered by gently pressing and then releasing the plunger of the syringe to simulate the arterial pulse. The flaps were excised and placed in 100% glycerin and stored at 4° C. for 10 days. During this time flap tissue became thin, desiccated and transparent and allowed visualization of the vascular architecture under direct transillumination.

[2] = tested on: ischemic hindlimbs in mice; assay: Hindlimb ischemia model; type: in vivo, mouse; conditions: ischemic wild type hindlimbs; for hindlimb tissue necrosis: morpholino 10 μM to thigh musculature
Experimental: Wild type C57BL6, TSP1 null, CD47 null and CD36 null mice, age and sex matched, underwent ligation of the left external iliac and common femoral arteries. The right limb served as control. All animals underwent examination every 24 h to assess clinical ischemia based on a previously published index (Paek et al., J Vasc Surg. 36:172-179, 2002). At the end of 3 or 7 days animals were euthanized, and the tibialis anterior muscles from the right and left limbs were harvested, weighed and processed for mitochondrial viability.
Mitochondrial viability of hindlimb muscle biopsies was assessed by the reduction of a tetrazolium salt to water insoluble formazan through mitochondrial oxidation as described (Bonheur et al., J Surg Res. 116:55-63, 2004). Tibialis anterior muscle biopsies were weighed and incubated in 3 ml of PBS supplemented 1:10 with 3-(4,5-dimethylthiazol-2-yl)-2,5 diphenyl tetrazolium stock (MTT, Promega, Madison, Wis.) for 3 h in the dark at 37° C., washed with distilled water and blotted dry. The formazan salt was extracted in 3 ml of 2-propranol for 6 hours in the dark at 37° C. Absorbance for 200 μl aliquots was determined at 425 nm on a microplate reader. Muscle samples were dried at 90° C. and weighed again. Results were expressed as absorbance normalized to dry tissue weight.

human aortic VSMC = assay: Intracellular cGMP in human aortic VSMC after morpholino; type: cell-based; conditions: for TSP1 inhibition of NO-driven cGMP accumulation: human aortic VSMC pre-treated with morpholino
Experimental: (§1) Human aortic VSMC were plated onto 12-well culture plates (Nunc) at a density of 5×10^4 cells/well in SM-GM+2% FCS and cultured until approximately 90% confluent. A translation-blocking antisense morpholino oligonucleotide complementary to human and murine CD47 ([…]; SEQ ID NO: 21) and a five-base mismatch control (CGTgACAGcCAcGACCgACTGCgCA; SEQ ID NO: 22) were obtained from GeneTools (Philomath, Oreg.). Cultured cells were treated as per the manufacturer's recommendation with morpholinos (10 μM) and utilized within 48 hours of treatment.
cGMP was determined in human aortic VSMC via immunoassay as described (Isenberg et al., Blood 2006; Example 2). In some situations cells were pretreated with a CD47 or control morpholino prior to assay.

HAVSMC = assay: 3D collagen matrix contraction assay, human aortic VSMC; type: cell-based; conditions: for TSP1 block of NO relaxation of FCS-induced gel contraction: human aortic VSMC pretreated with 10 μM morpholino
Experimental: Type I collagen gel (3 mg/ml) with 10×M199 (Gibco, Grand Island, N.Y.) at a 10:1 ratio of collagen to medium was prepared, pH balanced with NaOH and seeded with either HAVSMC or VSMC harvested from aortic segments from C57B16 WT or TSP1 null mice (50,000 cells in 75 μl of gel/well) and aliquoted to 96-well plates (Nunc, Denmark). Plates were incubated for 12 h 37° C. and 5% CO2 allowing for gelation and cell spreading, gently released from the well walls and incubated in serum and additive deficient growth medium with 0.1% BSA in the presence of the indicated treatment agents for 10 h. Contraction was determined by measuring the diameter in perpendicular planes (x, y) of each disk, an average obtained and surface area calculated as (d/2)^2π. Experiments were performed in triplicate. Results represent the mean±SD of at least three separate experiments.
as §1

| Substance | flap necrosis [1] | India ink staining of flap vessels ([1]; post-operative day 3) | hindlimb tissue necrosis [2] | TSP1 inhibition of NO-driven cGMP accumulation (human aortic VSMC) | TSP1 block of NO relaxation of FCS-induced gel contraction (HAVSMC) | NO-driven cGMP flux (human aortic VSMC; untreated VSMC) | inhibitory activity of NO on gel contraction (HAVSMC; HAVSMC, DETA/NO 10 μM, TSP1 2.2 nM) | flap tissue survival ([1]; compared to untreated flaps) | muscle mitochondrial viability [2] |
| --- | --- | --- | --- | --- | --- | --- | --- | --- | --- |
| CGTgACAGcCAcGACCgACTGCgCA (antisense CGTGACAGCCACGACCGACTGCGCA; all phosphorodiamidate morpholino (PMO)) [control morpholino, reference compound] | 34±6% | lack of India ink staining of vessels | did not protect | retained sensitivity to inhibition | remained sensitive to TSP1 inhibition | – | – | – | – |
| TSP1: thrombospondin-1 prepared from human platelets | – | – | – | – | – | complete inhibition of an NO-driven cGMP flux | completely abrogated | – | – |
| CGTCACAGGCAGGACCCACTGCCCA (all phosphorodiamidate morpholino (PMO)) [CD47 morpholino] | 12±3% | – | essentially no tissue necrosis | essentially blind to the inhibitory effects of TSP1 | TSP1 was not able to block this relaxation | – | – | significantly more tissue survival | increased muscle mitochondrial viability |
